Consider seven compounds from USRE37516E1, “Acetamide derivative having defined particle size” (Cephalon, Inc., priority 1994, dated 2002).

The nature of series [1]: Modafinil particle size analysis, Hiac/Royco Model 9064 sizing counter. The format is physicochemical. Particulars: for MODAFINIL PARTICLE DIAMETER MEAN / MODAFINIL PARTICLE DIAMETER MEDIAN / MODAFINIL PARTICLE DIAMETER MODE: Hiac/Royco Model 9064, n = 4, +/− standard deviation; for STD DEVIATION BETWEEN MEAN, MEDIAN, MODE: derived from mean, median and mode particle diameter. An excerpt: Our particle size measurements were obtained using a Hiac/Royco Model 9064 sizing counter following manufacturer instructions (400 μm aperture; saturated water with modafinil solution; PDAS program). A summary of the results of these measurements is presented in Table 1, which includes the mean, median and mode particle sizes for six representative lots of modafinil. For comparative purposes, the standard deviation values derived from the mean, median and mode measurements are provided, as are the ratio values of median:mean:mode. Lots E-A, E-B, E-C and E-D were among the so-called early lots, and Lots L-1 and L-2 were among the so-called late lots.
Measurements obtained using instruments and techniques developed by Hiac/Royko are preferred. A Hiac/Royco sizing counter utilizes the principle of light-extinction (obscuration) for particle size detection. The principle involved is that when a particle suspended in a liquid passes through a sensor microcell where a laser beam is directed through a window at the cell, the particles in the fluid block the laser beam from a light-extinction photodiode (photodetector) resulting in a loss of light intensity. This loss of light intensity detected by the photodetector produces an electrical pulse for each particle. These pulses are proportional in amplitude to the light intensity (light extinction) which is a measure of particle size.

A short description of series [2]: Plasma modafinil concentration in dogs after single oral dose of lots with different particle size. The format is in vivo. Particulars: single oral dose of 200 mg, capsule, 0 to 36 hours. On the procedure: Given the disparity in results between the foreign and United States studies using what was presumed to be “identical” modafinil, additional non-human analyses were necessary prior to continuation of human clinical trials. Accordingly, animal studies in dogs were carried out to determine the in vivo pharmacokinetics of modafinil with different average particle size diameters, roughly designated as having “small” (Lot L-1) and “large” (Lots E-B and E-D) median particle sizes. Nine male dogs were randomly assigned, according to body weight to three dose groups. Each group was given a single oral dose of 200 of mg modafinil weekly for three weeks in a randomized, cross-over design, as described in Table 2.
After each weekly dose, blood samples (2 ml) were drawn from all animals by venepuncture predose (within one hour of dosing), and at 0.5, 1, 2, 3, 4, 6, 8, 10, 12, 18, 24, and 36 hours post-dose. Blood samples were collected in heparinized (lithium heparin) test tubes and centrifuged at 2,500 to 3,000 rpm. The plasma was drawn off with a glass pipette, and stored frozen (−20° C.) until analyzed. The plasma concentration of modafinil, and its acid and sulfone metabolites were simultaneously determined by high-pressure liquid chromatography, according to the method of Moachon et al. (J. Chromatag. B 654:91 (1994)).

Series [3] can be described thus: Dissolution rate of modafinil particles in deionized water (first experiment). The following applies: 50 mg in 500 ml deionized water, stirred, 0-60 minutes, HPLC; L-1 compared with E-D. The format is physicochemical. The procedure: In the first experiment, 500 ml of deionized water was put in a 1-liter beaker and 50 mg of E-D or L-1 was added. The suspension was stirred constantly with a 5 cm Teflon-coated magnetic stir bar and a magnetic stir plate (Thermolyne model #546725). Samples of 1 ml each were taken at times 0, 1, 5, 10, 15, 20, 25, 30, 40, 50, and 60 minutes, with each sample being replaced with 1 ml of deionized water. The stir plate speed setting was “2” for the first 20 minutes, and “7” from 20 to 60 minutes Each sample was immediately filtered through a 0.45 μm filter, to remove undissolved particles. The filtered samples were assayed for modafinil, by high performance liquid chromatography, based upon the method of Moachon et al. (J. Chromatag. B 654:91 (1994)).

The next series has as its system healthy males. Nature of the series: First United States Phase I double-blind ascending dose clinical study. The format is in vivo. Particulars: humans, oral, 800 mg/day dose level. An excerpt: While significant testing of modafinil had already been conducted outside the United States, new drug candidates, such as modafinil, typically undergo clinical research in the United States in order to corroborate the information obtained in foreign studies. The first United States clinical evaluation of modafinil was a double-blind, ascending dose study involving oral administration of modafinil to healthy males (i.e., physically and mentally healthy male subjects 18 to 50 years of age; average body weight of −10% to +15% of normal weight for age, height, frame and sex; 2101).
The planned doses for the first United States clinical trial were 200, 400, 600, 800, 1000, 1200 and 1400 mg/day of modafinil or placebo. These dose levels were based upon the safety profile observed during the foreign clinical testing of modafinil. Subsequent doses were given only when it was determined that the previously administered dose was safe and well tolerated. For example, the safety data for the 200 mg study dose was reviewed and assessed before other volunteers received the 400 mg dose.
In this first United States Phase I clinical study, modafinil from Lot L-1 was utilized. Complete data were obtained for three of the seven modafinil dose levels intended for testing, i.e., 200, 400, and 600 mg/day. […] These symptoms resolved without treatment or sequelae following drug discontinuation. […]

Another series deals with normal young males. As to the kind of experiment: Second United States Phase I study (safety, tolerance, pharmacokinetics). Particulars: oral, titrated in 200 mg/day increments, Lots L-1 or L-2. The format is in vivo, humans. The procedure: After the discrepancy between the foreign and first United States studies was resolved and determined to be related to the differences in particle sizes, a second Phase I study was conducted in the United States, to further determine the clinical safety, tolerance and pharmacokinetic properties of modafinil having a particle size as defined. The second study involved normal young males and an experimental design similar to the first United States study (described above). In the second study, all subjects began at 200 mg/day using modafinil from Lots L-1 or L-2. Dosage was then titrated, in 200 mg/day increments, up to the target dose.

A further series has as its system humans. Particulars: cited from earlier work.
In another series the test system is mice. The following applies: single administration; cited from earlier work.
The subject of series [4] is patients or healthy volunteers. Particulars: doses tested in the foreign studies; cited from earlier work.
The next series has as its system monkeys. Particulars: single administration; cited from earlier work.
The nature of series [5]: Modafinil particle size measurement, Coulter Counter TA II sizing counter. The format is physicochemical. An excerpt: The value ranges defined above are based upon measurements made utilizing technology and instruments developed by the Hiac/Royko Division of Pacific Scientific (11801 Tech Road, Silver Spring, Md. 20904, United States of America). As those in the art may appreciate, different instruments manufactured by different companies may provide different measurements for the same particles. For example, in a characteristic modafinil lot (Lot L-2), the mean, median, and mode particle measurements obtained using a Coulter Counter TA II sizing counter were 43, 31, and 29 microns, respectively. Using a Hiac/Royko Model 9064 sizing counter, the mean, median and mode particle measurements obtained for Lot L-2 were 18.75, 31.41 and 25.31 microns, respectively. These differences are presumably predicated upon the different approaches used in measuring particles of such diminutive sizes. Thus, the value ranges provided above are relative and are most preferably to be considered in view of utilization of instruments and operating systems manufactured by Hiac/Royko, for example, and preferably, the Hiac/Royko Model 9064 system sizing counter.
Following this assumption, we compared various parameters from lots of the bulk drug; such comparisons had not been conducted previously, given the assumption that the modafinil being tested in the United States was the “same” as that investigated outside of the United States. Particle size distribution of the bulk drug was among the parameters examined. We have performed modafinil particle size analyses with a Hiac/Royko Model 9064 sizing counter, a Coulter Counter sizing counter, by optical microscopy and by scanning electron microscopy.

Values joined by “and” are separate entries in the source; they are usually repeats but may differ in a detail not shown here. Equal entries are not always repeated.

On to `NC(=O)C[S+]([O-])C(c1ccccc1)c1ccccc1` (centres unmarked) [Lot E-D, 2-(benzhydrylsulfinyl)acetamide], for which, in [1] (listed as E-D), the “MODAFINIL PARTICLE DIAMETER MEAN” value is 22.14 +/− 0.76 μm; the “MODAFINIL PARTICLE DIAMETER MEDIAN” value is 94.05 μm and 94.05 +/− 13.75 μm; the “MODAFINIL PARTICLE DIAMETER MODE” value was 158.63 +/− 63.81 μm; the “STD DEVIATION BETWEEN MEAN, MEDIAN, MODE” value came to 68.28. In series [2] (listed as E-D), the “peak plasma modafinil concentration (mean, nine dogs)” value (from here on “peak plasma modafinil concentration”) is 8 µg/mL.

With `NC(=O)C[S+]([O-])C(c1ccccc1)c1ccccc1` [Lot L-1, 2-(benzhydrylsulfinyl)acetamide], in series [1] (listed as L-1), the “MODAFINIL PARTICLE DIAMETER MEAN” value is listed as 21.40 +/− 2.52 μm; the “MODAFINIL PARTICLE DIAMETER MEDIAN” value is 50.18 μm and 50.18 +/− 12.57 μm; the “MODAFINIL PARTICLE DIAMETER MODE” value is on record as 56.56 +/− 22.39 μm; the “STD DEVIATION BETWEEN MEAN, MEDIAN, MODE” value is listed as 18.73. In addition, in [2] (listed as L-1), the “peak plasma modafinil concentration” value turned out to be 10 µg/mL. Further, the dissolution rate result in series [3] is listed as “faster dissolution rate”. Also, in the series on healthy males, the adverse events entry is “elevations in heart rate and blood pressure”.

Take `NC(=O)C[S+]([O-])C(c1ccccc1)c1ccccc1` (centres unmarked) [modafinil, 2-(benzhydrylsulfinyl)acetamide]: in the series with normal young males, the “maximum tolerable dose (MTD)” value turned out to be 600 mg/day and the minimum intolerable dose is given as 800 mg/day. Moreover, in the series with humans, the “treatment of idiopathic hypersomnia and narcolepsy” value is listed as “successfully tested”. The locomotor activity entry in the series on mice is “increased locomotor activity”. Moreover, the “hemodynamic changes in heart rate or blood pressure” value in [4] was “No statistically or clinically significant hemodynamic changes”. The nocturnal activity entry in the series on monkeys is on record as “increased nocturnal activity”.

Turning to `NC(=O)C[S+]([O-])C(c1ccccc1)c1ccccc1` (centres unmarked) [Lot E-A, 2-(benzhydrylsulfinyl)acetamide], in [1] (listed as E-A), the “MODAFINIL PARTICLE DIAMETER MEAN” value is 34.60 +/− 5.21 μm; the “MODAFINIL PARTICLE DIAMETER MEDIAN” value is reported as 143.65 +/− 3.26 μm; the “MODAFINIL PARTICLE DIAMETER MODE” value is given as 176.48 +/− 5.32 μm; the “STD DEVIATION BETWEEN MEAN, MEDIAN, MODE” value came out at 74.27.

`NC(=O)C[S+]([O-])C(c1ccccc1)c1ccccc1` (centres unmarked) [Lot E-C, 2-(benzhydrylsulfinyl)acetamide]: in series [1] (listed as E-C), the “MODAFINIL PARTICLE DIAMETER MEAN” value was 28.27 +/− 4.10 μm; the “MODAFINIL PARTICLE DIAMETER MEDIAN” value is on record as 79.00 +/− 3.78 μm; the “MODAFINIL PARTICLE DIAMETER MODE” value was 101.00 +/− 40.92 μm; the “STD DEVIATION BETWEEN MEAN, MEDIAN, MODE” value is given as 37.30.

For the compound `NC(=O)C[S+]([O-])C(c1ccccc1)c1ccccc1` [Lot L-2, 2-(benzhydrylsulfinyl)acetamide], in series [1] (listed as L-2), the “MODAFINIL PARTICLE DIAMETER MEAN” value is 18.75 +/− 1.89 μm; the “MODAFINIL PARTICLE DIAMETER MEDIAN” value is on record as 31.41 +/− 3.57 μm; the “MODAFINIL PARTICLE DIAMETER MODE” value is 25.31 +/− 1.34 μm; the “STD DEVIATION BETWEEN MEAN, MEDIAN, MODE” value was determined as 6.36. In series [1] (Hiac/Royko Model 9064), this compound registered a mean particle measurement of 18.75 microns, a median particle measurement of 31.41 microns and a mode particle measurement of 25.31 microns. In addition, in [5], the mean particle measurement is recorded as 43 microns, the median particle measurement was determined as 31 microns and the mode particle measurement is given as 29 microns.

For the compound `NC(=O)C[S+]([O-])C(c1ccccc1)c1ccccc1` (centres unmarked) [Lot E-B, 2-(benzhydrylsulfinyl)acetamide], in [1] (listed as E-B), the “MODAFINIL PARTICLE DIAMETER MEAN” value is reported as 29.99 +/− 1.09 μm; the “MODAFINIL PARTICLE DIAMETER MEDIAN” value is 89.10 μm and 89.10 +/− 4.28 μm; the “MODAFINIL PARTICLE DIAMETER MODE” value is reported as 78.59 +/− 2.60 μm; the “STD DEVIATION BETWEEN MEAN, MEDIAN, MODE” value was determined as 31.53. In addition, the “peak plasma modafinil concentration” value in series [2] (listed as E-B) amounted to 8 µg/mL.
